ChEMBL document CHEMBL1141970, “Synthesis and chloroquine-enhancing activity of Na-deacetyl-ferrocenoyl-strychnobrasiline” (2005)

Columns and labels:
Plasmodium falciparum [1] = test: Percent inhibition of Plasmodium falciparum FCM29 after 0.75 mg/kg subcutaneous dose; assay type: functional; conditions: sc
Plasmodium falciparum [2] = test: Percent parasitaemia after 10 mg/kg oral dose; assay type: functional, K1
Plasmodium falciparum [3] = test: Percent inhibition of Plasmodium falciparum FCM29 after 10 mg/kg oral dose; assay type: functional
Plasmodium falciparum [4] = test: Percent parasitemia after 0.75 mg/kg dose; assay type: functional, K1
Plasmodium falciparum [5] = test: Percent parasitemia after 5 mg/kg peroral dose; assay type: functional, organism-based; set-up: dose 5 mg/kg; conditions: K1, at 5 mg/kg
Plasmodium falciparum [6] = test: Percent inhibition of Plasmodium falciparum FCM29 after 5 mg/kg oral dose; assay type: functional, organism-based; set-up: dose 5 mg/kg; conditions: K1, at 5 mg/kg

Row | Compound | inhibition in vivo at 0.75 mg/kg (Plasmodium falciparum [1]) [%] | Parasitemia (Plasmodium falciparum [2]) [%] | inhibition in vivo at 10 mg/kg (Plasmodium falciparum [3]) [%] | Parasitemia (Plasmodium falciparum [4]) [%] | Parasitemia (Plasmodium falciparum [5]) [%] | Parasitemia (Plasmodium falciparum [2]; K1, at 10 mg/kg) [%] | inhibition (Plasmodium falciparum [3]; at 10 mg/kg) [%] | inhibition (Plasmodium falciparum [6]) [%]
1 | CCN(CC)CCCC(C)Nc1ccnc2cc(Cl)ccc12 (stereo not drawn) [CHLOROQUINE] | 17.2 | 0.1 | 99.8 | 32.2 | – | – | – | –
2 | Ferrocenoyl-strychnobrasiline derivative | – | – | – | – | 36.1 | 38.4 | 1.3 | 7.2
